The values that follow come from PubChem BioAssay (NCI).

Among the test systems are COLO 205 colon; T-47D breast; DU-145 prostate; HCT-116 colon; MALME-3M melanoma; ACHN renal; OVCAR-3 ovarian; IGROV1 ovarian; NCI/ADR-RES ovarian; SR leukemia; 786-0 renal.
Holding throughout (experiment): NCI tumour cell line growth inhibition, 48 h

Each structure is given as a SMILES string.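 Assay format: 96-well plates, 48-hour exposure. TGI marks complete inhibition of growth.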 Where only a bound is given, the exact number is not on record here.

As to `N/C1=C/C(=O)NC(=O)c2c(c3ccccc3oc2=O)C1`, the TGI with COLO 205 colon, with T-47D breast, with DU-145 prostate, with HCT-116 colon, in the experiment on MALME-3M melanoma and with ACHN renal was greater than 100 µM in each case. The TGI in the experiment with OVCAR-3 ovarian, with IGROV1 ovarian, with NCI/ADR-RES ovarian, in the experiment on SR leukemia and in the experiment with 786-0 renal was greater than 100 µM each time.

Take `CC(=O)OCC1OC(n2c(Br)nc3c2c(=O)n(C)c(=O)n3C)C(OC(C)=O)C1OC(C)=O` (configuration not stated): the TGI in the experiment with COLO 205 colon, in the experiment with T-47D breast, with DU-145 prostate, in the experiment with HCT-116 colon, in the experiment on MALME-3M melanoma and with ACHN renal was greater than 100 µM each time. The TGI in the experiment with OVCAR-3 ovarian, with IGROV1 ovarian, in the experiment with NCI/ADR-RES ovarian, in the experiment with SR leukemia and in the experiment with 786-0 renal was greater than 100 µM in each case.

Take `COc1ccc(C2C(=O)c3c(OC)cc(OC)cc3OC2c2cccnc2)cc1` (configuration not stated): the TGI with COLO 205 colon, with T-47D breast, with DU-145 prostate, in the experiment on HCT-116 colon, in the experiment on MALME-3M melanoma and in the experiment with ACHN renal was greater than 100 µM in each case. Further, the TGI with OVCAR-3 ovarian, in the experiment with IGROV1 ovarian, with NCI/ADR-RES ovarian, in the experiment on SR leukemia and in the experiment with 786-0 renal was greater than 100 µM throughout.

Turning to `CCCCCCCCCCCCCCCCNc1ccn(C2CC(O)C(COC(c3ccccc3)(c3ccccc3)c3ccc(OC)cc3)O2)c(=O)n1` (configuration not stated), the TGI with COLO 205 colon, with T-47D breast, with DU-145 prostate, in the experiment on HCT-116 colon, in the experiment on MALME-3M melanoma and with ACHN renal was greater than 100 µM in each case. In addition, the TGI in the experiment with OVCAR-3 ovarian, in the experiment on IGROV1 ovarian, in the experiment on NCI/ADR-RES ovarian, in the experiment on SR leukemia and in the experiment with 786-0 renal was greater than 100 µM throughout.

Turning to `c1ccc2c(c1)cc1n2CCc2c-1[nH]c1ccccc21`, the TGI in the experiment on COLO 205 colon, in the experiment on T-47D breast, in the experiment on DU-145 prostate, with HCT-116 colon, in the experiment with MALME-3M melanoma and in the experiment with ACHN renal was greater than 10 µM throughout. Besides, the TGI in the experiment with OVCAR-3 ovarian, in the experiment with IGROV1 ovarian, in the experiment on NCI/ADR-RES ovarian, in the experiment on SR leukemia and with 786-0 renal was greater than 10 µM in each case.

For `O=C1C(c2c(O)[nH]c3ccc(Br)cc23)=Nc2ccc(Br)cc21`, the TGI in the experiment on COLO 205 colon was greater than 100 µM; with T-47D breast it was greater than 100 µM; in the experiment with DU-145 prostate it was 82.3 µM; in the experiment on HCT-116 colon, 34.6 µM; in the experiment with MALME-3M melanoma, greater than 100 µM; in the experiment with ACHN renal, greater than 100 µM. The TGI in the experiment on OVCAR-3 ovarian was greater than 100 µM; in the experiment with IGROV1 ovarian, greater than 100 µM; with NCI/ADR-RES ovarian, greater than 100 µM; with SR leukemia, greater than 100 µM; in the experiment on 786-0 renal, 46.9 µM.

Consider `O=C(Cn1c(C(=O)c2ccccc2)nc2ccccc21)c1ccccc1`, for which the TGI with COLO 205 colon, in the experiment with T-47D breast, with DU-145 prostate, in the experiment on HCT-116 colon, in the experiment with MALME-3M melanoma and in the experiment on ACHN renal was greater than 100 µM in each case. Also, the TGI in the experiment on OVCAR-3 ovarian is greater than 100 µM; with IGROV1 ovarian, greater than 31.6 µM; with NCI/ADR-RES ovarian, greater than 100 µM; with SR leukemia, greater than 100 µM; in the experiment on 786-0 renal, greater than 100 µM.

Consider `CCN1CCC(CNC(=O)c2ccc(N)cc2)N1CC` (configuration not stated), for which the TGI in the experiment with COLO 205 colon, with T-47D breast, with DU-145 prostate, in the experiment on HCT-116 colon, in the experiment with MALME-3M melanoma and with ACHN renal was greater than 100 µM each time. Further, the TGI in the experiment on OVCAR-3 ovarian, in the experiment on IGROV1 ovarian, in the experiment with NCI/ADR-RES ovarian, with SR leukemia and in the experiment with 786-0 renal was greater than 100 µM in each case.

Turning to `C/C(=C/CC[C@]1(CO)CC[C@]2(C)[C@H](CC[C@@H]3[C@@]4(C)CC[C@H](OC5OC(CO)C(O)C(O)C5OC5OC(CO)C(O)C(O)C5O)C(C)(C)[C@@H]4CC[C@]32C)[C@H]1O)CO` (some centres not stated), the TGI in the experiment on COLO 205 colon, in the experiment on T-47D breast, in the experiment on DU-145 prostate, in the experiment with HCT-116 colon, with MALME-3M melanoma and in the experiment on ACHN renal was greater than 100 µM in each case. Further, the TGI in the experiment on OVCAR-3 ovarian, in the experiment with IGROV1 ovarian, in the experiment on NCI/ADR-RES ovarian, in the experiment with SR leukemia and in the experiment on 786-0 renal was greater than 100 µM throughout.

Take `COC(=O)Nc1nc2ccc(S(=O)(=O)N3CCOCC3)cc2[nH]1`: the TGI in the experiment with COLO 205 colon, with T-47D breast, with DU-145 prostate, in the experiment on HCT-116 colon, with MALME-3M melanoma and with ACHN renal was greater than 100 µM each time. Also, the TGI in the experiment with OVCAR-3 ovarian, with IGROV1 ovarian, in the experiment with NCI/ADR-RES ovarian, in the experiment on SR leukemia and in the experiment on 786-0 renal was greater than 100 µM in each case.

Take `CC(C)=CC(=O)c1[nH]c2ccccc2c1CC(=O)NCCc1cncn1C`: the TGI with COLO 205 colon was 79.6 µM; in the experiment with T-47D breast, greater than 100 µM; in the experiment with DU-145 prostate, greater than 100 µM; in the experiment with HCT-116 colon, greater than 100 µM; with MALME-3M melanoma, greater than 100 µM; with ACHN renal, greater than 100 µM. In addition, the TGI was greater than 100 µM in the experiment with OVCAR-3 ovarian; greater than 100 µM in the experiment with IGROV1 ovarian; greater than 100 µM in the experiment with NCI/ADR-RES ovarian; 68 µM with SR leukemia; greater than 100 µM with 786-0 renal.

Consider `O=C(SCc1cccc2ccccc12)c1ccc(Cl)cc1`, for which the TGI in the experiment with COLO 205 colon, with T-47D breast, in the experiment on DU-145 prostate, with HCT-116 colon, in the experiment on MALME-3M melanoma and in the experiment with ACHN renal was greater than 100 µM in each case. Further, the TGI in the experiment with OVCAR-3 ovarian, in the experiment with IGROV1 ovarian, with NCI/ADR-RES ovarian, in the experiment with SR leukemia and in the experiment on 786-0 renal was greater than 100 µM in each case.
